Results taken from patent US20240316132A1 (priority 2023, published 2024).
Converted amounts (≈) assume the structure as drawn.

Assays:
[1] = Solubility in water; format: physicochemical
[2] = Solubility in DMDA / Met10u high-KB amide surfactant; format: physicochemical
[3] = Solubility in mineral oil; format: physicochemical; conditions: oil or lipid, under certain conditions
[4] = Thermal stability (decarboxylation of CBDA to CBD); format: physicochemical; conditions: saturated solution of CBDA in Met10u
[5] = cited from earlier work

SMILES	solubility of CBDA in water ([1]; temperature of 4 degrees Celsius or lower, pH 4 or lower)	solubility of CBDA in water ([1]; temperature of 70 degrees Celsius or higher, pH of 10 or higher)	solubility ([2]; DMDA (high-KB amide surfactant), organic solvent or mixture, at 70 C) [mg/mL]	solubility of CBDA in Met10u ([2]; at 0 C) [%]	solubility of CBDA in Met10u ([2]; at 60 C) [%]	solubility [3] [mg/mL]	temperature at which CBDA begins to lose its carboxylic moiety (decarboxylation) and become CBD [4]	pKa [5]
C=C(C)[C@@H]1CCC(C)=C[C@H]1c1c(O)cc(CCCCC)c(C(=O)O)c1O [CBDA, Δ(9)-tetrahydrocannabidiolic acid]	below 20 micrograms per milliliter	over 20 milligrams per milliliter	> 1000	1	100	~6 (≈ 16.7 mM)	at least 130 C	
CCCCC/C=C\C/C=C\CCCCCCCC(=O)O [Linoleic acid, linoleic acid]								9.24
